According to patent US6147098A, “Substituted guanidines and diaminonitroethenes, their preparation and use” (Novo Nordisk A/S, priority 1998, dated 2000):
pEC50: −log10 of the molar value.

Columns and labels:
rin 5F cells = assay: 86Rb+ efflux from a β-cell line (increased Rb-efflux in rin 5F cells); format: cell-based; conditions: 1 h at room temperature
Method: An opening of KATP -channels will result in an efflux of potassium ions. By measuring the release of ^86 Rb^+ (a radioactive potassium mimic) from e.g. beta-cells pre-incubated in the presence of ^86 Rb^+ the effect of compounds acting as potassium channel openers can be determined. The test expresses the ability of the compounds to regulate the secretion of insulin from the beta-cells.
^86 Rb^+ efflux from a β-cell line
The RIN 5F cell line was grown in RPMI 1640 with Glutamax I, supplemented with 10% fetal calf serum (from GibcoBRL, Scotland, UK) and maintained in an atmosphere of 5% CO2 /95% air at 37° C. The cells were detached with a Trypsin-EDTA solution (from GibcoBRL, Scotland, UK), resuspended in medium, added 1 mCi/ml ^86 Rb^+ and replated into microtiter plates (96 well cluster 3596, sterile, from Costar Corporation,Mass., USA) at a density of 50000 cells/well in 100 μl/well, and grown 24 hours before use in assay.
The plates were washed 4 times with Ringer buffer (150 mM NaCl, 10 mM Hepes, 3.0 mM KCl, 1.0 mM CaCl2, 20 mM Sucrose, pH 7.1). Eighty μl Ringer buffer and 1 μl control- or test compound dissolved in DMSO was added. […] The plates were counted in TopCount (Packard Instrument Company, CT, USA) for 1 min/well at the 32p program. […]

rat aorta rings = assay: Relaxation of rat aorta rings; format: cell-based; conditions: phenylephrine-contracted rat thoracic aorta rings; cumulative addition; read-out: EC50 (concentration required to evoke a 50% relaxation of the tissue)
Method: The activity of the compounds as potassium channel openers can also be measured as relaxation of rat aorta rings according to the following procedure:
A section of rat thoracic aorta between the aortic arch and the diaphragm was dissected out and mounted as ring preparations as described by Taylor P. D. et al, Brit J. Pharmacol, 111, 42-48 (1994).
After a 45 min. equilibration period under a tension of 2 g, the preparations were contracted to achieve 80% of the maximum response using the required concentration of phenylephrine. When the phenylephrine response reached a plateau, potential vasodilatory agents were added cumulatively to the bath in small volumes using half log molar increments at 2 min intervals. Relaxation was expressed at the percentage of the contracted tension. The potency of a compound was expressed as the concentration required to evoke a 50% relaxation of the tissue.

IDDM = conditions: animal experiments and early non-blinded experiments in humans; cited from earlier work

pEC50 (rin 5F cells) | pEC50 (rat aorta rings) | Structure (SMILES) | role against IDDM and cytokine/immune mediated beta-cell destruction (IDDM)
5.59 | 5.25 | CC(C)CCN=C(NC#N)Nc1cc(C(F)(F)F)cc(C(F)(F)F)c1 [Example 1, N-Cyano-N'-(3,5-bis(trifluoromethyl)phenyl)-N"-(3-methylbutyl)guanidine] | 
 |  | NC(=O)c1cccnc1 [Nicotinamide] | protective role
